Measurements as given in patent US7767118B2, “Nanoparticles from supercritical fluid antisolvent process using particle growth and agglomeration retardants” (Ferro Corporation, priority 2003, dated 2010).

Columns and labels:
[1] = Particle size distribution by laser light scattering; type: physicochemical; conditions: FIG. 5, standard deviation 1.87 microns, particles precipitated in SC-CO2 at 40° C., 80 bar with alpha D glucose penta acetate
Description: The mean diameter of the acetaminophen particles formed in the Example was measured using the conventional laser light scattering technique, which is known in the art. FIG. 5 is a graph showing the size distribution of particles. The mean volume diameter of the particles was 4.08 microns and the standard deviation was 1.87 microns.

[2] = Scanning electron micrographs of the particles formed in the Example; type: physicochemical; conditions: particles precipitated from acetone into SC-CO2 at 40° C., 80 bar with alpha D glucose penta acetate as growth retardant; FIGS. 4A and 4B; substantially uniform in size, circular in shape
Text: FIGS. 4A and 4B are scanning electron micrographs of the acetaminophen particles formed in the Example at two magnifications. […] Some minimal particle agglomeration or bridging is apparent.

mean volume diameter of the particles [1]: 4.08 microns | particle size (scanning electron micrographs) [2]: 1-2 microns
Structure (SMILES): CC(=O)Nc1ccc(O)cc1 [acetaminophen]
